Assay results: patent US20100093867A1, “Method Of Treating Genetic Disease Caused By Nonsense Mutation” (priority 2006, published 2010)

What was measured:
mdx mouse [1] = test: Effect of administration on a muscular dystrophy mouse model; type: in vivo; details: into the stomach, 4 or 400 mg/kg/day for 7 days
Procedure: The aforementioned compound 2 was studied for its effect of administration on a muscular dystrophy mouse model. An mdx mouse was used as a muscular dystrophy mouse model. The compound 2 was administered forcibly into the stomach of an mdx mouse at a dose of 4 or 400 mg/kg/day for 7 days, and then biochemical and immuno-histochemical analyses were conducted.

mdx mouse [2] = test: Side effects in mice; type: in vivo; details: subcutaneous, 4 or 400 mg/kg/day for 14 days
Procedure: The aforementioned compound 2 was studied for side effects in mice.
The compound 2 was injected subcutaneously to an mdx mouse at a dose of 4 or 400 mg/kg/day for 14 days.

[3] = system: patients with Duchenne muscular dystrophy; details: Non-patent document 1; cited from earlier work
[4] = system: airway epithelium of patients with cystic fibrosis; details: topical administration to airway epithelium, Non-patent document 2; cited from earlier work
[5] = system: mouse models for muscular dystrophy; details: Patent document 1; cited from earlier work

In the case of `CC(=O)NC(CC(N)=O)C(=O)O` (stereo not drawn) [compound 2], the “results compared to positive control group administered with gentamicin” value (mdx mouse [1]) is reported as “favorable results compared to a positive control group administered with gentamicin”, the “serum creatine kinase activity” value (mdx mouse [1]) is reported as “reduced” and the “dystrophin in muscles (e.g. hind limb)” value (mdx mouse [1]; immuno-histochemical analysis) is reported as “accumulated”. For the same compound, the “body weight during the administration period” value (mdx mouse [2]) was “no decrease”, the “hearing test that measures auditory brainstem response” value (mdx mouse [2]) was “no abnormal values” and the “eighteen serological and biochemical tests” value (mdx mouse [2]; total protein, albumin, AST, ALT, ALP, γ-GTP, creatinine, glucose, lipids, electrolytes, bilirubin etc.) was “no abnormal values”.
In the case of gentamicin, the dystrophin protein [3] is given as “led to accumulation of dystrophin protein” and the typical electrophysiological abnormalities [4] is given as “could correct”.
In the case of `CN(CC(=O)O)NC(=O)C[C@H](N)C[C@@H](O)CN` [negamycin], the dystrophin expression [5] is given as “restore a dystrophin expression”.
